Consider four molecules from patent US11089783B2, “2-(het)aryl-substituted fused heterocycle derivatives as pesticides” (Bayer Aktiengesellschaft, priority 2017, dated 2021).

What all share (format): in vivo
The subject of one experiment is Lucilia cuprina. Nature of the experiment: Lucilia cuprina test. To be noted: 48 h, L1 larvae, after 2 days, read-out: efficacy (kill). An outline of the steps:
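About 20 L1 larvae of Lucilia cuprina placed on minced horsemeat containing compound (DMSO stock diluted in water to test concentration). Kill (%) scored after 2 days; 100% = all larvae dead, 0% = none dead.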

The next experiment has as its system Meloidogyne incognita. Nature of the experiment: Meloidogyne incognita test (MELGIN). To be noted: Meloidogyne incognita, 336 h, 14 days (14 dat), read-out: efficacy (nematicidal, gall formation). An outline of the steps: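 Sand with lettuce seeds, M. incognita egg/larvae suspension and aqueous dilution of compound concentrate. Nematicidal efficacy scored from gall (root-knot) formation after 14 days or the desired time, as % relative to untreated control (100% = no galls; 0% = as control).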

For another experiment, the system named is Nezara viridula. Nature of the experiment: Nezara viridula spray test (NEZARA / NEZAVI). Conditions: Nezara viridula, 96 h, 4 g/ha, 4 dat, read-out: % efficacy. An outline of the steps: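 Barley plants infested with Nezara viridula larvae were sprayed with active ingredient in solvent/emulsifier water (1000 ppm emulsifier; ammonium salt or penetrant at 1000 ppm if added). Efficacy scored as % mortality after the set time (100% = all bugs killed).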

The next experiment deals with Phaedon cochleariae. Nature of the experiment: Phaedon cochleariae spray test (PHAECO), Chinese cabbage leaf discs. Conditions: Phaedon cochleariae, foliar, 168 h; for pest or weed control at 100 g/ha: 7 days (7 dat), read-out: efficacy. An outline of the steps:
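Chinese cabbage (Brassica pekinensis) leaf discs sprayed with compound in water with 1000 ppm emulsifier, then after drying infested with Phaedon cochleariae larvae. Efficacy (% larvae killed) scored after 7 days or the chosen interval.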

The subject of a further experiment is Ctenocephalides felis. Nature of the experiment: Ctenocephalides felis in vitro contact test with adult cat fleas. Conditions: 5 μg/cm^2 (=500 g/ha), after 48 h. On the procedure:
For the coating of the test tubes, 9 mg of active ingredient are first dissolved in 1 ml of acetone p.a. and then diluted to the desired concentration with acetone p.a. 250 μl of the solution are distributed homogeneously on the inner walls and the base of a 25 ml glass tube by turning and rocking on an orbital shaker (rocking rotation at 30 rpm for 2 h). With 900 ppm of active ingredient solution and internal surface area 44.7 cm^2, given homogeneous distribution, an area-based dose of 5 μg/cm^2 is achieved. After the solvent has evaporated off, the tubes are populated with 5-10 adult cat fleas (Ctenocephalides felis), sealed with a perforated plastic lid and incubated in a horizontal position at room temperature and ambient humidity. After 48 h, efficacy is determined. To this end, the tubes are stood upright and the fleas are knocked to the base of the tube. Fleas which remain motionless at the base or move in an uncoordinated manner are considered to be dead or moribund. […] 100% efficacy means that all the fleas were dead or moribund. 0% efficacy means that no fleas were harmed.

In another experiment the test system is Myzus persicae. Nature of the experiment: Myzus persicae oral test. Conditions: 120 h, after 5 days, read-out: efficacy. An outline of the steps: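 Compound solution in IPL41 insect medium with sugar was sealed under parafilm, through which a mixed population of green peach aphids fed. Mortality was scored after 5 days as % efficacy, with 100% meaning all aphids killed.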

Take `CCNC(=O)Nc1ccc(S(=O)(=O)CC)c(-c2nc3cc(C(F)(F)C(F)(F)F)nnc3n2C)n1` [Example I-13]: in the experiment on Lucilia cuprina, the pest or weed control at 100 ppm was 100%. In addition, the pest or weed control at 20 ppm with Meloidogyne incognita was 100%. Moreover, the Emax at 4 g/ha in the experiment with Nezara viridula turned out to be 80%. Besides, the pest or weed control at 100 g/ha in the experiment on Phaedon cochleariae was found to be 100%. Further, the percent efficacy (larval mortality) at a fixed application rate at 4 g/ha in the experiment on Phaedon cochleariae (PHAECO, 4 g/ha, 7 dat) was found to be 100%. In addition, the percent efficacy (larval mortality) at a fixed application rate at 20 g/ha in the experiment with Phaedon cochleariae (PHAECO, 7 dat) was 100%. This molecule yielded an efficacy with Ctenocephalides felis of 100%. In addition, the pest or weed control at 0.8 ppm with Myzus persicae is 100%.

Regarding `CCS(=O)(=O)c1ccc(N(C)C(=O)NC)nc1-c1nc2cc(C(F)(F)C(F)(F)F)nnc2n1C` [Example I-09], in the experiment with Lucilia cuprina, the pest or weed control at 100 ppm was determined as 100%. Besides, the pest or weed control at 20 ppm in the experiment with Meloidogyne incognita was 100%. For the same molecule, the Emax at 4 g/ha with Nezara viridula is 70%; in the experiment with Phaedon cochleariae (PHAECO, 4 g/ha, 7 dat, read-out: % efficacy), 83%. In addition, in the experiment with Phaedon cochleariae, the pest or weed control at 100 g/ha was 100%. Besides, the percent efficacy (larval mortality) at a fixed application rate at 20 g/ha in the experiment on Phaedon cochleariae (PHAECO, 7 dat) is 100%. This molecule also had an efficacy in the experiment on Ctenocephalides felis of 100%. In addition, the pest or weed control at 0.8 ppm in the experiment on Myzus persicae was 90%.

For the molecule `CCS(=O)(=O)c1ccc(NC(=O)N(C)C)nc1-c1nc2cc(C(F)(F)C(F)(F)F)nnc2n1C` [Example I-10], the pest or weed control at 100 ppm with Lucilia cuprina turned out to be 100%. The pest or weed control at 20 ppm with Meloidogyne incognita turned out to be 100%. The Emax at 4 g/ha in the experiment on Nezara viridula amounted to 80%. For the same molecule, in the experiment on Phaedon cochleariae, the pest or weed control at 100 g/ha stood at 100%. This molecule also gave an efficacy in the experiment on Ctenocephalides felis of 100%. Moreover, the pest or weed control at 0.8 ppm in the experiment with Myzus persicae was determined as 100%.

As to `CCS(=O)(=O)c1ccc(NC(=O)NC)nc1-c1nc2cc(C(F)(F)C(F)(F)F)nnc2n1C` [Example I-08, 1-{5-(ethylsulfonyl)-6-[7-methyl-3-(pentafluoroethyl)-7H-imidazo[4,5-c]pyridazin-6-yl]pyridin-2-yl}-3-methylurea], in the experiment on Lucilia cuprina, the pest or weed control at 100 ppm amounted to 100%. For the same molecule, the pest or weed control at 20 ppm in the experiment on Meloidogyne incognita is 100%. Also, the Emax at 4 g/ha with Nezara viridula turned out to be 90%. Also, the pest or weed control at 100 g/ha in the experiment with Phaedon cochleariae was 100%. Moreover, the pest or weed control at 0.8 ppm with Myzus persicae came out at 90%.
